Experimental data published in patent publication EP0231622B1, “Inhibition of the 5-lipoxygenase pathway” (priority 1985, dated 1987).
pIC50: −log10 of the molar value. Marks after values point to notes of the source that are not given here.

How the values were obtained:
[1] = tested on: Polymorphonuclear Leukocytes; test: Mouse Carrageenan Peritonitis (PMN infiltration); assay type: in vivo, Balb/c mice; conditions: for % Change / PMN x 10⁻⁵/ml (mean ± S.D.): Table 1, p.o.
From the text: (§1) In the following Examples where mice were used, they were male Balb/c mice (20-28 g), and where rats were used, they were male Lewis rats (180-210 g). All mice and rats were obtained from Charles River Breeding Laboratories, Kingston, N.Y. Within a single experiment, mice and rats were sex and age matched.
(§2) The compounds of Formula (IA) were used either as the free base or in the appropriate salt form. Levamisole was used as the hydrochloride salt. The compounds were homogenized in 0.5% tragacanth. Compounds were administered by gavage at the indicated dose in a final volume of 10 ml/kg. Nordihydroguaiaretic acid (NDGA) was solubilized in dimethylacetamide and diluted with olive oil for subcutaneous administration.
Mice were pretreated with either the test compound or vehicle one hour before the intraperitoneal injection of a 1.0% carrageenan suspension in saline (0.2 ml/ mouse). Mice were sacrificed by cervical dislocation two hours after injection, and 3.0 ml of phosphate buffered saline, without Ca⁺⁺ or Mg⁺⁺, was injected into the peritoneum. Following massage, a 2.0 ml aliquot of the lavage fluid was removed, and the total cell count determined on a Coulter counter and differential cell count determined by microscopic examination of Giesma-stained slides.

[2] = tested on: Carrageenan-Induced Cellular Infiltration; test: Carrageenan-induced air pouch inflammation; assay type: in vivo, Lewis rats; conditions: 100 mg/kg; 3 hours after carrageenan
From the text: as §1, §2
Rats were shaved on the dorsal flank, and then injected subcutaneously one day later with 20 ml of air to form a defined pouch, by the method of Sedgwick et al., J. Pathology, 141, 483-495 (1983). The air pouch was reinflated as necessary over the next 6 days. To assay anti-inflammatory activity, animals were treated orally with test compound or vehicle (10 ml/kg) one hour before injection of 2.0 ml of a 2.0% carrageenan suspension containing 200 units/ml penicillin and 100 »g/ml streptomycin into the air pouch. In other experiments, 5 ml of 0.1% arachidonic acid in 0.2 M bicarbonate buffer was injected two hours after drug treatment. Animals were sacrificed using CO₂ three hours after instillation of irritant. The exudate was then aspirated from the pouch and neutrophil count and differential cell count were measured.

5-Lipoxygenase = target: T1, 5-Lipoxygenase (Rattus norvegicus, UniProt P12527); test: 5-Lipoxygenase activity (5-HETE) in 10,000 x g supernatant of RBL-1 cells; assay type: biochemical; conditions: text b252; RBL-1 cell extracts; read-out: IC₅₀ 5-HETE synthesis
T1 construct: The activities of these enzymes in extracts of RBL-1 cells were assayed; host or cells: RBL-1 cells, disrupted by nitrogen cavitation; 10,000 x g or 100,000 x g supernatant
T1 sequence (P12527 1-673): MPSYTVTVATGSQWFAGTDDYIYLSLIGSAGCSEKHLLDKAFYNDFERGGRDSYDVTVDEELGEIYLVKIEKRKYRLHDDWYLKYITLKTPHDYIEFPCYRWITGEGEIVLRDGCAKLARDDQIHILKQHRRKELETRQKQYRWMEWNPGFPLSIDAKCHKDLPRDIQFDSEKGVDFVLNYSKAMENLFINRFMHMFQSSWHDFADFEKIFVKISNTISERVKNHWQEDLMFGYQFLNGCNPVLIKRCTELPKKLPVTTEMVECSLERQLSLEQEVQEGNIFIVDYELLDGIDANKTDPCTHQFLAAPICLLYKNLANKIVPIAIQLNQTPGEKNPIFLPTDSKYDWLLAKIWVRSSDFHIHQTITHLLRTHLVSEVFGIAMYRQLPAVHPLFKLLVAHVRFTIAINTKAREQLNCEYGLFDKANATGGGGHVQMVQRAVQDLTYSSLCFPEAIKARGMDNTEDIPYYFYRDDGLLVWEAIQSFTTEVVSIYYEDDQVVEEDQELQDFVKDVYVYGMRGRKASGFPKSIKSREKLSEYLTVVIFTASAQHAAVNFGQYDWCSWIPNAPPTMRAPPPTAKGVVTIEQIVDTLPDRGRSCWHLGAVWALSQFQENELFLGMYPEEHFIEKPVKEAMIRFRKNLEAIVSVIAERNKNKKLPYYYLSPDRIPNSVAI

pIC50 (5-Lipoxygenase): 4.12
Compound: Fc1ccc(-c2nc3n(c2-c2ccncc2)CCS3)cc1 [Compound 1, 5-(4-pyridyl)-6-(4-fluorophenyl)-2,3-dihydroimidazo[2,1-b]thiazole]
ED50 ([1]; Mus musculus, Leukocyte, po, intraperitoneal carrageenan in mice, read-out: ED₅₀ (inhibition of PMN infiltration)): 43.9 mg/kg | % Change ([1]; 25 mg/kg): -27^e % | % Change ([1]; 50 mg/kg): -56^c % | PMN x 10⁻⁵/ml (mean ± S.D.) ([1]; 50 mg/kg): 4.84 ± 3.01 x 10⁻⁵/ml | PMN x 10⁻⁵/ml (mean ± S.D.) ([1]; 100 mg/kg, 1 h before i.p. carrageenan, read 2 h later): 2.48 ± 0.98 x 10⁻⁵/ml | % Change ([1]; 100 mg/kg, PMN vs vehicle): -77^b % | Cellular Infiltrate (Total x 10⁻⁶) MN [2]: 5.5 ± 3.8^e x 10⁻⁶ | Cellular Infiltrate (Total x 10⁻⁶) PMN [2]: 2.6 ± 1.3^d x 10⁻⁶ | Exudate Volume [2]: 1.0 ± 0.9 mL
